PubChem BioAssay AID1963432 (Molecular Pharmacology Branch, DTP, NCI, 2024)
pIC50: −log10 of the molar value. Several values for one entry are separate records, joined by “and”; a condition that tells them apart may be missing. Equal entries are not always repeated.

Test system: SYO-1 complex spheroid growth, percent test/control
Experiment: Anticancer human tumor SYO-1 cell line growth inhibition [Asc];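 further: compound exposure lasted 7 days after spheroids grew 3 days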;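 on viability, T/C: 100% = DMSO vehicle control viability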
Conditions: for viability, T/C: stronger effect = lower value
Procedure, shortened: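 Tumor cells were grown as multicellular spheroids with stromal HUVEC and mesenchymal stem cells and treated singly or in combination. Concentrations fell in half-log steps from the clinical Cmax, or from 10 microM where none was known.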

[1] = curve of first compound, second compound 0.0316 µM
[2] = curve of first compound, second compound 0.1 µM
[3] = curve of first compound, second compound 0.316 µM
[4] = curve of first compound, second compound 1 µM
[5] = second compound 0.0316 µM, first compound 0.00949 µM
[6] = second compound 0.0316 µM, first compound 0.03 µM
[7] = second compound 0.0316 µM, first compound 0.0949 µM
[8] = second compound 0.0316 µM, first compound 0.3 µM
[9] = second compound 0.1 µM, first compound 0.00949 µM
[10] = second compound 0.1 µM, first compound 0.03 µM
[11] = second compound 0.1 µM, first compound 0.0949 µM
[12] = second compound 0.1 µM, first compound 0.3 µM
[13] = second compound 0.316 µM, first compound 0.00949 µM
[14] = second compound 0.316 µM, first compound 0.03 µM
[15] = second compound 0.316 µM, first compound 0.0949 µM
[16] = second compound 0.316 µM, first compound 0.3 µM
[17] = second compound 1 µM, first compound 0.00949 µM
[18] = second compound 1 µM, first compound 0.03 µM
[19] = second compound 1 µM, first compound 0.0949 µM
[20] = second compound 1 µM, first compound 0.3 µM
[21] = curve of first compound, second compound 0.01 µM

In the case of `NC(=O)C(=Cn1cnc(-c2cc(C(F)(F)F)cc(C(F)(F)F)c2)n1)c1cncnc1` + Cc1c(S(C)(=O)=O)c(-c2cc(F)cc(N3CCN(c4ccc(NS(=O)(=O)c5ccc(NC(CCN6CCC(C(=O)OCCCP(=O)(O)O)CC6)CSc6ccccc6)c(S(=O)(=O)C(F)(F)F)c5)cc4)CC3)c2)c(-c2ccc(Cl)cc2)n1C(C)C, the pIC50 [1] was 6.77, the pIC50 [2] was 6.78 and the pIC50 [3] was 6.80. It also gave a pIC50 [4] of 6.81, a pIC50 (curve of first compound, second compound 3.16 µM) of 6.83 and a pIC50 (curve of first compound, second compound 10 µM) of 6.96. For the same compound, the viability, T/C (second compound 0.0316 µM, first compound 0.000949 µM) was 98.1%, the viability, T/C (second compound 0.0316 µM, first compound 0.003 µM) was 102% and the viability, T/C [5] was 86.8%. For the same compound, the viability, T/C [6] was 93.8%, the viability, T/C [7] was 96.3% and the viability, T/C [8] was 5.53%. It also gave a viability, T/C (second compound 0.1 µM, first compound 0.000949 µM) of 97.6%, a viability, T/C (second compound 0.1 µM, first compound 0.003 µM) of 94% and a viability, T/C [9] of 89.9%. The viability, T/C [10] was 93.9%, the viability, T/C [11] was 95.7% and the viability, T/C [12] was 2.56%. The viability, T/C (second compound 0.316 µM, first compound 0.000949 µM) was 95%, the viability, T/C (second compound 0.316 µM, first compound 0.003 µM) was 94.8% and the viability, T/C [13] was 92.9%. For the same compound, the viability, T/C [14] was 92.8%, the viability, T/C [15] was 89.1% and the viability, T/C [16] was 1.51%. For the same compound, the viability, T/C (second compound 1 µM, first compound 0.000949 µM) was 101%, the viability, T/C (second compound 1 µM, first compound 0.003 µM) was 91.2% and the viability, T/C [17] was 86%. For the same compound, the viability, T/C [18] was 90.8%, the viability, T/C [19] was 86.5% and the viability, T/C [20] was 0.55%. It also gave a viability, T/C (second compound 3.16 µM, first compound 0.000949 µM) of 91.2%, a viability, T/C (second compound 3.16 µM, first compound 0.003 µM) of 87.3% and a viability, T/C (second compound 3.16 µM, first compound 0.00949 µM) of 84%. For the same compound, the viability, T/C (second compound 3.16 µM, first compound 0.03 µM) was 86.3%, the viability, T/C (second compound 3.16 µM, first compound 0.0949 µM) was 81.3% and the viability, T/C (second compound 3.16 µM, first compound 0.3 µM) was 0.31%. The viability, T/C (second compound 10 µM, first compound 0.000949 µM) was 89%, the viability, T/C (second compound 10 µM, first compound 0.003 µM) was 76.8% and the viability, T/C (second compound 10 µM, first compound 0.00949 µM) was 75.6%. The viability, T/C (second compound 10 µM, first compound 0.03 µM) was 67.2%, the viability, T/C (second compound 10 µM, first compound 0.0949 µM) was 61.6% and the viability, T/C (second compound 10 µM, first compound 0.3 µM) was 0.38%.

Work on `Cc1nc(N2CCC3(CC2)COC(C)C3N)c(CO)nc1Sc1ccnc(N)c1Cl` (stereo not given) + CNC(C)C(=O)NC1CN(S(=O)(=O)c2cccc(S(=O)(=O)N3CCC4CCC(C(=O)NC(c5ccccc5)c5ccccc5)N4C(=O)C(NC(=O)C(C)NC)C3)c2)CCC2CCC(C(=O)NC(c3ccccc3)c3ccccc3)N2C1=O yielded a pIC50 (curve of first compound, second compound 0.00316 µM) of less than 5.52, a pIC50 [21] of less than 5.52 and a pIC50 [1] of less than 5.52. For the same compound, the pIC50 [2] was less than 5.52, the pIC50 [3] was less than 5.52 and the pIC50 [4] was less than 5.52. It also gave a viability, T/C (second compound 0.00316 µM, first compound 0.00949 µM) of 107%, a viability, T/C (second compound 0.00316 µM, first compound 0.03 µM) of 105% and a viability, T/C (second compound 0.00316 µM, first compound 0.0949 µM) of 109%. The viability, T/C (second compound 0.00316 µM, first compound 0.3 µM) was 96.5%, the viability, T/C (second compound 0.00316 µM, first compound 0.949 µM) was 106% and the viability, T/C (second compound 0.00316 µM, first compound 3 µM) was 102%. For the same compound, the viability, T/C (second compound 0.01 µM, first compound 0.00949 µM) was 105%, the viability, T/C (second compound 0.01 µM, first compound 0.03 µM) was 95.8% and the viability, T/C (second compound 0.01 µM, first compound 0.0949 µM) was 101%. It also gave a viability, T/C (second compound 0.01 µM, first compound 0.3 µM) of 105%, a viability, T/C (second compound 0.01 µM, first compound 0.949 µM) of 110% and a viability, T/C (second compound 0.01 µM, first compound 3 µM) of 105%. The viability, T/C [5] was 111%, the viability, T/C [6] was 104% and the viability, T/C [7] was 102%. It also gave a viability, T/C [8] of 106%, a viability, T/C (second compound 0.0316 µM, first compound 0.949 µM) of 115% and a viability, T/C (second compound 0.0316 µM, first compound 3 µM) of 108%. The viability, T/C [9] was 109%, the viability, T/C [10] was 103% and the viability, T/C [11] was 104%. It also gave a viability, T/C [12] of 116%, a viability, T/C (second compound 0.1 µM, first compound 0.949 µM) of 110% and a viability, T/C (second compound 0.1 µM, first compound 3 µM) of 110%. The viability, T/C [13] was 105%, the viability, T/C [14] was 107% and the viability, T/C [15] was 108%. It also gave a viability, T/C [16] of 107%, a viability, T/C (second compound 0.316 µM, first compound 0.949 µM) of 119% and a viability, T/C (second compound 0.316 µM, first compound 3 µM) of 102%. It also gave a viability, T/C [17] of 103%, a viability, T/C [18] of 109% and a viability, T/C [19] of 104%. It also gave a viability, T/C [20] of 103%, a viability, T/C (second compound 1 µM, first compound 0.949 µM) of 115% and a viability, T/C (second compound 1 µM, first compound 3 µM) of 107%.

For `Cc1c(S(C)(=O)=O)c(-c2cc(F)cc(N3CCN(c4ccc(NS(=O)(=O)c5ccc(NC(CCN6CCC(C(=O)OCCCP(=O)(O)O)CC6)CSc6ccccc6)c(S(=O)(=O)C(F)(F)F)c5)cc4)CC3)c2)c(-c2ccc(Cl)cc2)n1C(C)C` (stereo not given), the viability, T/C (compound 0.0316 µM) was 102% [middle of 7 runs], the viability, T/C (compound 0.1 µM) was 100% [middle of 7 runs] and the viability, T/C (compound 0.316 µM) was 96.5% [middle of 7 runs]. The viability, T/C (compound 1 µM) was 90.6% [middle of 7 runs], the viability, T/C (compound 3.16 µM) was 88.6% [middle of 7 runs] and the viability, T/C (compound 10 µM) was 79% [middle of 7 runs]. The pIC50 (compound alone, run of 11/07/2022) was less than 5.00.

In the case of `O=C(c1cc(Cc2n[nH]c(=O)c3ccccc23)ccc1F)N1CCN(C(=O)C2CC2)CC1`, the viability, T/C (compound 0.0316 µM) was 96.5% and 98.2% and 111%, the viability, T/C (compound 0.1 µM) was 91.4% and 91.9% and 103% and the viability, T/C (compound 0.316 µM) was 102% and 99.6% and 101%. For the same compound, the viability, T/C (compound 1 µM) was 96.7% and 105% and 95.2%, the viability, T/C (compound 3.16 µM) was 38% and 49.1% and 73.5% and the viability, T/C (compound 10 µM) was 6.76% and 6.7% and 10.1%. The pIC50 (curve of compound) was 5.60 and 5.51 and 5.32.

In the case of `C=C(F)C(=O)N1CCN(c2nc(OCC3CCCN3C)nc3c2CCN(c2cccc4cccc(Cl)c24)C3)CC1CC#N` (stereo not given), the viability, T/C (compound 0.0316 µM) was 107% and 98.8% and 99.1%, the viability, T/C (compound 0.1 µM) was 102% (2×) and 96.3% and the viability, T/C (compound 0.316 µM) was 97.5% and 101% and 100%. For the same compound, the viability, T/C (compound 1 µM) was 95.2% and 101% and 113%, the viability, T/C (compound 3.16 µM) was 97.3% and 90.3% and 92.2% and the viability, T/C (compound 10 µM) was 0.28% and 0.79% and 0.39%. The pIC50 (curve of compound) was 5.26 and 5.27.

In the case of `O=C(c1cc(Cc2n[nH]c(=O)c3ccccc23)ccc1F)N1CCN(C(=O)C2CC2)CC1` + CNC(C)C(=O)NC1CN(S(=O)(=O)c2cccc(S(=O)(=O)N3CCC4CCC(C(=O)NC(c5ccccc5)c5ccccc5)N4C(=O)C(NC(=O)C(C)NC)C3)c2)CCC2CCC(C(=O)NC(c3ccccc3)c3ccccc3)N2C1=O, the pIC50 [21] was 5.33, the pIC50 [1] was 5.35 and the pIC50 [2] was 5.36. For the same compound, the pIC50 [3] was 5.37, the pIC50 [4] was 5.41 and the viability, T/C (second compound 0.01 µM, first compound 0.0316 µM) was 99.8%. For the same compound, the viability, T/C (second compound 0.01 µM, first compound 0.1 µM) was 95.9%, the viability, T/C (second compound 0.01 µM, first compound 0.316 µM) was 105% and the viability, T/C (second compound 0.01 µM, first compound 1 µM) was 94.6%. The viability, T/C (second compound 0.01 µM, first compound 3.16 µM) was 71.9%, the viability, T/C (second compound 0.01 µM, first compound 10 µM) was 9.58% and the viability, T/C (second compound 0.0316 µM, first compound 0.0316 µM) was 104%. For the same compound, the viability, T/C (second compound 0.0316 µM, first compound 0.1 µM) was 96.8%, the viability, T/C (second compound 0.0316 µM, first compound 0.316 µM) was 94.2% and the viability, T/C (second compound 0.0316 µM, first compound 1 µM) was 93.6%. The viability, T/C (second compound 0.0316 µM, first compound 3.16 µM) was 67.5%, the viability, T/C (second compound 0.0316 µM, first compound 10 µM) was 8.65% and the viability, T/C (second compound 0.1 µM, first compound 0.0316 µM) was 105%. For the same compound, the viability, T/C (second compound 0.1 µM, first compound 0.1 µM) was 95.4%, the viability, T/C (second compound 0.1 µM, first compound 0.316 µM) was 103% and the viability, T/C (second compound 0.1 µM, first compound 1 µM) was 93.5%. For the same compound, the viability, T/C (second compound 0.1 µM, first compound 3.16 µM) was 66.3%, the viability, T/C (second compound 0.1 µM, first compound 10 µM) was 8.36% and the viability, T/C (second compound 0.316 µM, first compound 0.0316 µM) was 98.6%. The viability, T/C (second compound 0.316 µM, first compound 0.1 µM) was 94.7%, the viability, T/C (second compound 0.316 µM, first compound 0.316 µM) was 99.8% and the viability, T/C (second compound 0.316 µM, first compound 1 µM) was 96.4%. For the same compound, the viability, T/C (second compound 0.316 µM, first compound 3.16 µM) was 65.8%, the viability, T/C (second compound 0.316 µM, first compound 10 µM) was 5.64% and the viability, T/C (second compound 1 µM, first compound 0.0316 µM) was 97.4%. The viability, T/C (second compound 1 µM, first compound 0.1 µM) was 102%, the viability, T/C (second compound 1 µM, first compound 0.316 µM) was 90.3% and the viability, T/C (second compound 1 µM, first compound 1 µM) was 91.7%. It also gave a viability, T/C (second compound 1 µM, first compound 3.16 µM) of 59.9% and a viability, T/C (second compound 1 µM, first compound 10 µM) of 5.84%.
